Molecular target: Bromodomain-containing protein 4 (Homo sapiens, UniProt O60885)
Assay: Inhibition of BRD4(1) (unknown origin) by Alpha screen binding assay

## CNC(=O)[C@H](CCCCNC(C)=O)NC
  IC50: 7 mM

## C[S+](C)[O-] [DIMETHYL SULFOXIDE]
  IC50: 280 mM
